The test deals with T1, CFTR del Ex23 (Homo sapiens, UniProt P13569, DEL1240-1291).
T1 construct: expressed in transfected cells; host or cells: HEK 293 cells, transient transfection with Lipofectamine 2000
The experiment in a line: FLIPR membrane potential assay of CFTR function in HEK 293 cells transiently transfected with CFTR del Ex23. The test is classed as cell-based. To be noted: forskolin 10 μM, addition of potentiator VX-770 (1 μM), FIG. 1B. Here is the method:
HEK cells were transiently transfected with a construct bearing a CFTR transcript having exon 23 completely deleted from it (CFTR del Ex23). Transfection was carried out using Lipofectamine 2000 transfection reagent (Invitrogen) according to the lipofectamine 2000 reagent protocol using the following lipofectamine amounts: 96 well—0.15 μl, 6 well—3 μl, […]—15 μl.
HEK cells transfected with the CFTR del Ex23 contruct were grown in 96-well (black, flat bottom; corning) plates. 48 hr post-transfection, CFTR channel function was analyzed using the FLIPR membrane potential assay as previously described (Molinski et al., 2015). Briefly, the cells were loaded with blue membrane potential dye (Molecular Devices), which can detect changes in transmembrane potential. The plate was then read in a fluorescence plate reader (BioTek Synergy H1) for baseline levels followed by CFTR stimulation using the cAMP agonist forskolin (10 μM; Sigma), DMSO vehicle was used as a negative control. CFTR-mediated depolarization of the plasma membrane was detected as an increase in fluorescence and hyperpolarization (or repolarization) as a decrease. […]
FLIPR™ (Fluorescence Imaging Plate Reader) is a functional system that allows measuring changes in membrane potential by a fluorescent indicator. […]

T1 sequence (P13569 with tags, fused parts or gaps DEL1240-1291): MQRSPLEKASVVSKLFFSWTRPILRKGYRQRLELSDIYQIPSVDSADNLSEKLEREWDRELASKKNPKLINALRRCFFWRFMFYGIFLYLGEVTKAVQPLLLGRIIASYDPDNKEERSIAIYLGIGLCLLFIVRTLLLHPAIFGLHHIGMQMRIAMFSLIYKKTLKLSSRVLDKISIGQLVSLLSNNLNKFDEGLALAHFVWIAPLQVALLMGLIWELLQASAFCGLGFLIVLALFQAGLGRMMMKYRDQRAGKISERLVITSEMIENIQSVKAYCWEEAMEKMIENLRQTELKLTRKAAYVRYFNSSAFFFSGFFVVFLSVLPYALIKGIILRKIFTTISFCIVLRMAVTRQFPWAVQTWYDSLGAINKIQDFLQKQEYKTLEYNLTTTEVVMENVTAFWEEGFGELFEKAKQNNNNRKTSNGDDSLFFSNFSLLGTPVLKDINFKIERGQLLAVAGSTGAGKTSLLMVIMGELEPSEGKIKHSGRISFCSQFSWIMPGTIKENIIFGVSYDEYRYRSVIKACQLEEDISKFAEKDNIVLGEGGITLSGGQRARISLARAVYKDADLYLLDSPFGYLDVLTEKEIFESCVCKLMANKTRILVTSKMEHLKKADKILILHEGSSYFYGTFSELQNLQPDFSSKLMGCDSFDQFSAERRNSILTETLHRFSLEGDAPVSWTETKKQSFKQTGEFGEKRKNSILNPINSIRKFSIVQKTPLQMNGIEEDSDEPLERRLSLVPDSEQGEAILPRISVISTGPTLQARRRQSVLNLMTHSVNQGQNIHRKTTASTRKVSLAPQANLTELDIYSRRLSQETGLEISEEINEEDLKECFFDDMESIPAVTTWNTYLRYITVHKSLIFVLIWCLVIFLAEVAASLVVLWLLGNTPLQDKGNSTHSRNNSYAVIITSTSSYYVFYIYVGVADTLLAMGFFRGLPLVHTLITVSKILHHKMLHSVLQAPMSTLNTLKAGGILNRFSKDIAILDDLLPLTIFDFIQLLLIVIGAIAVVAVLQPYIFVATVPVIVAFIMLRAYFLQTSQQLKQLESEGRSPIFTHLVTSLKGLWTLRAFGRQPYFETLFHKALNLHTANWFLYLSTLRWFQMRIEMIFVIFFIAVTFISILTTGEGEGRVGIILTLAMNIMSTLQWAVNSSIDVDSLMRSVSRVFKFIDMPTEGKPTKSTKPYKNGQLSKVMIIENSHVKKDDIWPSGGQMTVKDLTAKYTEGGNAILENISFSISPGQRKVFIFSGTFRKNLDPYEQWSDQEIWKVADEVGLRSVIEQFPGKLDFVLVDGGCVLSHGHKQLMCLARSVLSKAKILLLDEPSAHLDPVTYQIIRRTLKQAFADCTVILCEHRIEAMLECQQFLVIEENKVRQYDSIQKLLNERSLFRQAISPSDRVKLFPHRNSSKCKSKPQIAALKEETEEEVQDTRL

For the compound `CC(C)(C)c1cc(C(C)(C)C)c(NC(=O)c2c[nH]c3ccccc3c2=O)cc1O` [VX-770, N-(2,4-Di-tert-butyl-5-hydroxyphenyl)-4-oxo-1,4-dihydroquinoline-3-carboxamide], the channel activation was 35 % of WT.

The record behind these values is US20220040219A1, “COMPOSITIONS AND METHODS FOR TREATING CYSTIC FIBROSIS” (SpliSense Ltd., priority 2019, published 2022).
